#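 Cells were grown in 96-well plates and exposed to each compound for 48 hours at five concentrations; endpoints were interpolated linearly between bracketing concentrations, or set to the highest concentration if not reached. GI50 = concentration required for 50% inhibition of growth.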 Calls of active or inactive are those of the source. Rule as the data show it: active = GI50 up to about 1.1 µM and inactive = higher.
# Assays:
# Experiment in all cases: NCI-60 cell line screen, 48 h
# [1] = tested on: RPMI-8226
# [2] = tested on: RXF 393
# [3] = tested on: UACC-62
# [4] = tested on: HCT-15
# [5] = tested on: HL-60
# [6] = tested on: UO-31
# [7] = tested on: SF-539
# [8] = tested on: A498
# [9] = tested on: NCI-H23
# [10] = tested on: HOP-62
# [11] = tested on: NCI-H226
# [12] = tested on: HCC 2998
# [13] = tested on: ACHN
# [14] = tested on: TK-10
# [15] = tested on: Hs-578T
# [16] = tested on: M14
# [17] = tested on: SK-MEL-5
# [18] = tested on: SNB-75
# [19] = tested on: Malme-3M
# [20] = tested on: SW-620
SMILES,GI50 [1],GI50 [2],GI50 [3],GI50 [4],GI50 [5],GI50 [6],GI50 [7],GI50 [8],GI50 [9],GI50 [10],GI50 [11],GI50 [12],GI50 [13],GI50 [14],GI50 [15],GI50 [16],GI50 [17],GI50 [18],GI50 [19],GI50 [20]
CO/C=C(/C(=O)OC)c1ccccc1Oc1c(F)c(F)c(F)c(F)c1F,16.8 µM (inactive),20.7 µM (inactive),21.9 µM (inactive),54.2 µM,< 0.01 µM (active),32.2 µM (inactive),56 µM (inactive),36.7 µM (inactive),37.7 µM (inactive),53.6 µM (inactive),38.2 µM (inactive),36.7 µM (inactive),50.4 µM (inactive),28.5 µM (inactive),25.8 µM (inactive),35.3 µM (inactive),20.9 µM (inactive),–,–,–
CC1CN(c2cc3c(cc2F)c(=O)c(C(=O)O)cn3-c2ccc(F)cn2)CC(C)N1 (configuration not stated),> 100 µM (inactive),> 100 µM (inactive),> 100 µM (inactive),> 100 µM,> 100 µM (inactive),> 100 µM (inactive),> 100 µM (inactive),> 100 µM (inactive),> 100 µM (inactive),> 100 µM (inactive),> 100 µM (inactive),–,–,> 100 µM (inactive),> 100 µM (inactive),> 100 µM (inactive),–,> 100 µM (inactive),> 100 µM (inactive),> 100 µM (inactive)
COc1ccccc1/N=N/C(=N/NC(=O)c1ccc(C)cc1)c1ccc(N(CCC#N)CCC#N)cc1OC,14 µM (inactive),22.9 µM (inactive),38.3 µM (inactive),42.3 µM,10.8 µM (inactive),38.5 µM (inactive),–,22.2 µM (inactive),32.4 µM (inactive),40.5 µM (inactive),80 µM (inactive),34.2 µM (inactive),19.6 µM (inactive),68.5 µM (inactive),56.4 µM (inactive),29.4 µM (inactive),37.8 µM (inactive),–,38.1 µM (inactive),38.1 µM (inactive)
CC1(C)[C@@H](Cn2cnc3c(O)nc(N)nc32)CC[C@@]1(C)CO,> 100 µM (inactive),> 100 µM (inactive),60.5 µM (inactive),> 100 µM,–,> 100 µM (inactive),> 100 µM (inactive),> 100 µM (inactive),–,> 100 µM (inactive),> 100 µM (inactive),> 100 µM (inactive),> 100 µM (inactive),> 100 µM (inactive),> 100 µM (inactive),> 100 µM (inactive),> 100 µM (inactive),> 100 µM (inactive),–,> 100 µM (inactive)
Nc1nc(O)c2ncn([C@H]3CC[C@@H](CO)O3)c2n1,> 100 µM (inactive),> 100 µM (inactive),> 100 µM (inactive),> 100 µM,–,> 100 µM (inactive),–,> 100 µM (inactive),> 100 µM (inactive),> 100 µM (inactive),> 100 µM (inactive),–,–,> 100 µM (inactive),> 100 µM (inactive),> 100 µM (inactive),> 100 µM (inactive),> 100 µM (inactive),> 100 µM (inactive),> 100 µM (inactive)
CC(=O)N1NC(c2ccccc2)=CC(=O)/C1=C/C(=O)c1ccccc1,31.3 µM (inactive),24.2 µM (inactive),42.5 µM (inactive),70.8 µM,35.2 µM (inactive),98.4 µM (inactive),32.1 µM (inactive),> 100 µM (inactive),> 100 µM (inactive),88.1 µM (inactive),93.8 µM (inactive),> 100 µM (inactive),77.3 µM (inactive),48.8 µM (inactive),39.9 µM (inactive),82.2 µM (inactive),47.8 µM (inactive),–,37.6 µM (inactive),–
Nc1ccc(S(=O)(=O)C23CC4CC(CC(C4)C2)C3)cc1,55.3 µM (inactive),30.1 µM (inactive),> 100 µM (inactive),> 100 µM,27.2 µM (inactive),> 100 µM (inactive),> 100 µM (inactive),23.1 µM (inactive),> 100 µM (inactive),> 100 µM (inactive),> 100 µM (inactive),> 100 µM (inactive),> 100 µM (inactive),> 100 µM (inactive),> 100 µM (inactive),> 100 µM (inactive),4.49 µM (inactive),–,> 100 µM (inactive),> 100 µM (inactive)
COC(=O)C(C(=O)C(=O)Nc1c(C)cccc1C(C)(C)C)c1nc2ccc(Cl)cc2nc1O (configuration not stated),> 100 µM (inactive),> 100 µM (inactive),> 100 µM (inactive),> 100 µM,–,> 100 µM (inactive),> 100 µM (inactive),> 100 µM (inactive),> 100 µM (inactive),> 100 µM (inactive),> 100 µM (inactive),> 100 µM (inactive),> 100 µM (inactive),> 100 µM (inactive),> 100 µM (inactive),> 100 µM (inactive),> 100 µM (inactive),> 100 µM (inactive),> 100 µM (inactive),> 100 µM (inactive)
COc1ccc(-c2cc(O)c3cc(OC)c(OC)cc3n2)cc1OC,> 100 µM (inactive),67.3 µM (inactive),> 100 µM (inactive),> 100 µM,–,> 100 µM (inactive),> 100 µM (inactive),> 100 µM (inactive),> 100 µM (inactive),37.7 µM (inactive),> 100 µM (inactive),> 100 µM (inactive),> 100 µM (inactive),> 100 µM (inactive),69.8 µM (inactive),> 100 µM (inactive),> 100 µM (inactive),37.2 µM (inactive),> 100 µM (inactive),> 100 µM (inactive)
CC(C)(C)OC(=O)C1=C(C(=O)OC(C)(C)C)SC2(S1)C(C(=O)OC(C)(C)C)=C(C(=O)OC(C)(C)C)Sc1c2ssc1=O,48.1 µM (inactive),45.2 µM (inactive),31.3 µM (inactive),> 100 µM,39.4 µM (inactive),56.8 µM (inactive),–,> 100 µM (inactive),95.1 µM (inactive),64.9 µM (inactive),–,> 100 µM (inactive),44.1 µM (inactive),> 100 µM (inactive),75.5 µM (inactive),95.7 µM (inactive),> 100 µM (inactive),–,> 100 µM (inactive),26.4 µM (inactive)
O=C(O)C12CC3(C(=O)O)CC(C(=O)O)(CC(C(=O)O)(C1)C3=O)C2=O,> 100 µM (inactive),> 100 µM (inactive),> 100 µM (inactive),> 100 µM,–,> 100 µM (inactive),–,> 100 µM (inactive),> 100 µM (inactive),> 100 µM (inactive),> 100 µM (inactive),–,> 100 µM (inactive),> 100 µM (inactive),> 100 µM (inactive),> 100 µM (inactive),> 100 µM (inactive),> 100 µM (inactive),> 100 µM (inactive),> 100 µM (inactive)
CCCNC(=O)c1cc(NC(=O)c2cc(NC(=O)CCS(=O)(=O)OC)cn2C)cn1C,> 100 µM (inactive),14.4 µM (inactive),19.8 µM (inactive),> 100 µM,–,> 100 µM (inactive),–,> 69.3 µM (inactive),17.4 µM (inactive),25.8 µM (inactive),–,43.5 µM (inactive),52.4 µM (inactive),67.5 µM (inactive),32.7 µM (inactive),28.6 µM (inactive),17.1 µM (inactive),20.6 µM (inactive),8.41 µM (inactive),6.27 µM (inactive)
Cc1nc2sc3cccc(Cl)c3n2c(=O)c1/N=N/c1ccc(Cl)cc1,> 100 µM (inactive),> 100 µM (inactive),–,> 100 µM,> 100 µM (inactive),–,> 100 µM (inactive),17.4 µM (inactive),99.8 µM (inactive),75.2 µM (inactive),42.4 µM (inactive),–,59.7 µM (inactive),> 100 µM (inactive),45.9 µM (inactive),> 100 µM (inactive),68.2 µM (inactive),85.3 µM (inactive),70.6 µM (inactive),66.5 µM (inactive)
Cc1nnc(N)nc1C/C=C/C(Sc1ccc(Cl)cc1)c1ccccc1 (configuration not stated),1.43 µM (inactive),4.45 µM (inactive),2.74 µM (inactive),3.25 µM,2.87 µM (inactive),1.52 µM (inactive),–,3.73 µM (inactive),3.17 µM (inactive),5.28 µM (inactive),1.86 µM (inactive),9.38 µM (inactive),4.3 µM (inactive),7.14 µM (inactive),3.27 µM (inactive),4.73 µM (inactive),4.35 µM (inactive),4.45 µM (inactive),3.06 µM (inactive),4.2 µM (inactive)
CC[C@@H](C)[C@H](NC(=O)[C@H](Cc1ccccc1)NCC(F)(F)F)C(=O)OC(C)(C)C,–,42 µM (inactive),47.8 µM (inactive),> 100 µM,> 100 µM (inactive),> 100 µM (inactive),–,> 100 µM (inactive),> 100 µM (inactive),> 100 µM (inactive),19.6 µM (inactive),> 100 µM (inactive),> 100 µM (inactive),> 100 µM (inactive),> 100 µM (inactive),> 100 µM (inactive),> 100 µM (inactive),–,> 100 µM (inactive),> 100 µM (inactive)
CC(CC(=O)O)(CC(=O)O)C(=O)O,> 100 µM (inactive),> 100 µM (inactive),> 100 µM (inactive),> 100 µM,–,> 100 µM (inactive),> 100 µM (inactive),> 100 µM (inactive),> 100 µM (inactive),> 100 µM (inactive),–,> 100 µM (inactive),> 100 µM (inactive),> 100 µM (inactive),> 100 µM (inactive),> 100 µM (inactive),> 100 µM (inactive),> 100 µM (inactive),> 100 µM (inactive),> 100 µM (inactive)

# Reference: ChEMBL document CHEMBL1201862, “PubChem BioAssay data set” (2004)
